Tests used:
[1] = system: MDA-MB-231 cells; experiment: Cultrex BME cell invasion assay; type: cell-based, human; details: for fold more active against cell invasion than latrunculin A (compound 1): 0.5 μM
Method: The anti-invasive activities of compounds 1-14 were measured using a 96 well basement membrane extract (BME) cell invasion assay kit against the highly metastatic MDA-MB-231 cells. This assay employs a simplified Boyden Chamber with a polyethylene terephthalate membrane (8 μm pore size). Cell invasion was quantified using calcein-acetomethylester (calcein-AM). Cells internalize calcein-AM; intracellular esterases then cleave the acetomethylester moiety to generate free calcein. Free calcein fluoresces brightly. This fluorescence may be used to quantify the number of cells that have invaded across the BME. To correlate the anti-invasive activities of the latrunculin A derivatives with their actin-disrupting activities, compounds 1-14 were each tested at non-toxic concentrations. […] Accordingly, all compounds were tested at 0.1, 0.5, and 1.0 μM. Compound 3 killed 17% of MDA-MB-231 cells at 1.0 μM, while the same dose of compound 3 inhibited 95% of MDA-MB-231 cells' invasion. […] The anti-invasive activities of compounds 1-14 are attributed primarily to the inhibition of actin polymerization, not to cell death per se.
Cultrex® Cell Invasion Assay. Anti-invasive activities were measured using Trevigen's Cultrex® Cell Invasion Assay as described in K. Tamilarasan et al., BMC Cell Biol. 2006, 7, 17-30; and P. Borghesani et al., Development. 2002, 6, 1435-1442. About 50 μL of basement membrane extract (BME) coat was added to each well. After incubation for 4 h at 37° C. under 5% CO2, 50,000 MDA-MB-231 cells in 50 μL of serum free RPMI medium were added to each well in the top chamber, along with the test compound at one of several concentrations (0.1, 0.5, 1 μM). About 150 μL of RPMI medium was added to the lower chamber in 10% FBS and penicillin/streptomycin, using fibronectin ([…]) and N-formyl-met-leu-phe (10 nM) as chemoattractants. Cells were allowed to migrate to the lower chamber at 37° C. under 5% CO2. After 24 h, the top and bottom chambers were aspirated and washed with the washing buffer that had been supplied with the kit. About 100 μL of Cell Dissociation Solution/Calcein-AM solution was added to the bottom chamber, and the cells were incubated at 37° C. under CO2 for 1 h. Briefly, the cells internalize calcein-AM, and then the intracellular esterases cleave the AM moiety to generate free calcein. […] The number of cells that had invaded through the BME coat was calculated using a standard curve.

[2] = system: HeLa cells; experiment: HeLa cell G2/M assays; type: cell-based
Source text: This assay measures HeLa cell proliferation, apoptosis, DNA content and condensation, cyclin B, and phosphor-histone H3.

[3] = system: MCF7; experiment: MTT proliferation assay, MCF7; type: cell-based, human; details: for IC50: Homo sapiens, MCF7, MTT, 72 h, mean ± SEM, read-out: IC50 (μM) MCF7
Source text: (§1) The antiproliferative and anti-invasive activities of compounds 1-14 were quantified using MTT and cell invasion assay kits, respectively. Latrunculin A (compound 1) was used as a positive control in all biological assays, because it is known to be an actin polymerization inhibitor, with cytotoxic, antiproliferative, and anti-invasive activities. The 3-[4,5-dimethylthiazol-2-yl]-2,5-diphenyl tetrazolium bromide (MTT) assay selectively detects living cells in a quantitative, colorimetric fashion, based on a living cell's ability to reduce MTT to an insoluble, purple formazan dye. The MTT assay is routinely used to assess cytotoxicity and proliferation inhibition activities. The antiproliferative activities of compounds 1-14 were measured against two human mammary gland adenocarcinoma cell lines, MCF7 and MDA-MB-231, and against human prostate cancer cells PC-3 at five different doses (0.1, 0.5, 1, 10, and 50 μM). While many of the semisynthetic latrunculins had similar activity levels, some had greater activity than compound 1. […] Although the MDA-MB-231 cells were more resistant than MCF7 against most latrunculin derivatives tested, compound 14 had potent activity against both cell lines.
(§2) MTT Proliferation Assay. The growth of MCF7, MDA-MB-231, and PC-3 cancer cell lines was measured using an MTT kit (TACS™, TREVIGEN®, Inc.). Exponentially growing cells were plated in a 96-well plate at a density of 8×10^3 cells per well, and allowed to attach for 24 h. Complete growth medium was then replaced with 100 μL of RPMI serum-free medium containing various concentrations (50, 10, 1, 0.5, 0.1 μM) of the particular test compound. Culture continued at 37° C. under 5% CO2. After 72 h of culture, the cells were treated with MTT solution (10 μL/well) at 37° C. for 4 h. The color reaction was stopped by adding solubilization/stop solution (100 μL/well). Incubation continued at 37° C. continued to completely dissolve the formazan dye product. Absorbance of the samples was determined at 570 nm with an ELISA plate reader (BioTek, VT). The number of cells per well was calculated against a standard curve that had been prepared by plating various concentrations of cells, as determined by hemocytometer, at the start of each experiment. IC50 for each compound was calculated using a nonlinear regression curve fit of log concentration versus the number of cells/well, using GraphPad Prism 5.0 (GraphPad Software, La Jolla, Calif.).

[4] = system: MDA-MB-231; experiment: MTT proliferation assay, MDA-MB-231; type: cell-based, human; details: for IC50: Homo sapiens, MDA-MB-231, MTT, 72 h, mean ± SEM, read-out: IC50 (μM) MDA-MB-231
Source text: as §1, §2

[5] = system: PC-3; experiment: MTT proliferation assay, PC-3; type: cell-based, human; details: for IC50: Homo sapiens, PC-3, MTT, 72 h, read-out: IC50 (μM) PC-3
Source text: as §1, §2

Row | Structure (SMILES) | fold more active against cell invasion than latrunculin A (compound 1) [1] [fold] | times greater inhibition against G2-M-phase HeLa cells compared to nocodazole ([2]; various G2_M assays) | IC50 [3] [µM] | IC50 [4] [µM] | IC50 [5] [µM] | factor of greater activity than compound 1, MDA-MB-231 invasion assay ([1]; assessed at 1 μM) | dose range of strong growth inhibition of HeLa cells at early interphase ([2]; flow cytometry) [µM] | activity in G2_M assays compared with nocodazole ([2]; less active than compound 11) | factor of greater activity than compound 1, MCF7 proliferation assay ([3]; assessed at 1 μM) | fold increase in activity against MCF7 versus compound 1 ([3]; relative to compound 1) [fold] | factor of greater activity than compound 1, MDA-MB-231 proliferation assay ([4]; assessed at 1 μM) | fold increase in activity against PC-3 versus compound 1 ([5]; relative to compound 1) [fold]
1 | COc1ccc(CC(=O)N2C(=O)SC[C@H]2[C@@]2(OC)C[C@H]3C[C@@H](CC[C@H](C)/C=C\C=C\CC/C(C)=C\C(=O)O3)O2)cc1 [Compound 11, 17-O-Methyl-N-(7′-methoxyphenylacetyl)latrunculin A] | 4.6 | 3.5-51.0 times | 15.4 ± 1.21 | 26.2 ± 3.91 | 19.8 | – | – | – | – | – | – | –
2 | C/C1=C/C(=O)O[C@@H]2C[C@@H](CC[C@H](C)/C=C\C=C\CC1)O[C@@](O)([C@@H]1CSC(=O)N1CO)C2 [Compound 14, N-Hydroxymethyllatrunculin A] | 2.1 | – | 0.12 ± 0.01 | 2.99 ± 0.15 | 0.36 | 2.7 | 0.04 to 1.25 | greater activity than did nocodazole | 4 | 4.0 | 1.4 | 10.8

— patent publication US20110136880A1, “Latrunculin-Based Macrolides and Their Uses” (priority 2009, published 2011)
